From ChEMBL document CHEMBL3045732, “Structural requirements for repellency: norsesquiterpenes and sesquiterpenoid derivatives of nootkatone against the Formosan subterranean termite (Isoptera: Rhinotermitidae)” (2010)

The compounds below were run on Coptotermes formosanus (assay: Insect repellant activity against Coptotermes formosanus assessed as repellency threshold concentration measured up to 24 hr by multiple-step triage method).
Assay type: functional

Question: How did the MEC turn out when CC(C)[C@@H]1CC[C@]2(C)C(=CC(=O)C[C@@H]2C)C1 was run?
Answer: 6.25 µg/g

Question: For C=C(C)[C@@H]1CC[C@@]2(C)CCC(=O)C=C2C1, which MEC is on record?
Answer: 6.25 µg/g

Question: With C=C(C)[C@@H]1CC[C@]2(C)C(=CC(=O)C[C@@H]2C)C1 as the compound, how does the MEC read?
Answer: 12.5 µg/g

Question: For C=C(C)[C@@H]1CC[C@]2(C)CCC(=O)C=C2C1, which MEC is on record?
Answer: 12.5 µg/g

Question: Which MEC does the source give for C=C(C)[C@@H]1CC[C@@]2(C)C=CC(=O)C=C2C1 here?
Answer: 25 µg/g

Question: CC(C)[C@@H]1CC[C@@]2(C)C=CC(=O)C=C2C1 was tested. Which MEC did it give?
Answer: 25 µg/g

Question: For CC1=CC(=O)C=C2C[C@H](C(C)C)CC[C@@]12C, which MEC is on record?
Answer: 25 µg/g

Question: C=C(C)[C@@H]1CC[C@@]2(C)C(C)=CC(=O)C=C2C1 was tested. Which MEC did it give?
Answer: 50 µg/g

Question: With C=C(C)[C@@H]1CCC2C[C@@H](O)C[C@@H](C)[C@]2(C)C1 (some centres not stated) as the compound, how does the MEC read?
Answer: 50 µg/g

Question: For C=C(C)[C@@H]1CCC2CC3(C[C@@H](C)[C@]2(C)C1)OCCO3 (some centres not stated) [1,10-DIHYDRONOOTKATONE KETAL], which MEC is on record?
Answer: 1.56 µg/g

Question: For C=C(C)[C@@H]1CCC2CC(=O)C[C@@H](C)[C@]2(C)C1 (some centres not stated) [1,10-DIHYDRONOOTKATONE], which MEC is on record?
Answer: 1.56 µg/g

Question: For CC(C)[C@@H]1CCC2=CC(=O)C[C@H](C)[C@@]2(C)C1 [4BETA,5BETA-1,10-DIHYDRONOOTKATONE], which MEC is on record?
Answer: 3.25 µg/g

Question: With CC(C)[C@@H]1CCC2=CC(=O)C[C@@H](C)[C@]2(C)C1 [11,12-DIHYDRONOOTKATONE] as the compound, how does the MEC read?
Answer: 6.25 µg/g

Question: How did the MEC turn out when C=C(C)[C@@H]1CCC2=C[C@@H](O)C[C@@H](C)[C@]2(C)C1 [BETA-NOOTKATOL] was run?
Answer: 100 µg/g

Question: How did the MEC turn out when C=C(C)[C@@H]1CCC2=CC(=O)C[C@@H](C)[C@]2(C)C1 [NOOTKATONE] was run?
Answer: 12.5 µg/g

Question: With CC(C)[C@@H]1CCC2CC3(C[C@@H](C)[C@]2(C)C1)OCCO3 (some centres not stated) [TETRAHYDRONOOTKATONE KETAL] as the compound, how does the MEC read?
Answer: 1.56 µg/g

Question: Which MEC does the source give for CC(C)[C@@H]1CCC2CC(=O)C[C@@H](C)[C@]2(C)C1 (some centres not stated) [TETRAHYDRONOOTKATONE] here?
Answer: 1.56 µg/g
